Data published in patent US20230338337A1, “BIOMARKERS FOR CANCER THERAPY USING MDM2 ANTAGONISTS” (OTSUKA PHARMACEUTICAL CO., LTD., priority 2019, published 2023).

Each substance was assayed on SJSA-1 (assay: Protocol B: CellTiter-Glo cell viability assay). Conditions: read-out: SJSA1 IC50 (μM) (Protocol B); Protocol B.

Substance	IC50
1-({[(1R)-1-(4-chlorophenyl)-2-[(5-chloropyrimidin-2-yl)methyl]-7-fluoro-5-[1-hydroxy-1-(1-methyl-1H-pyrazol-4-yl)ethyl]-3-oxo-2,3-dihydro-1H-isoindol-1-yl]oxy}methyl)cyclopropane-1-carboxamide [Example 214]	0.22 µM
1-({[(1R)-1-(4-chlorophenyl)-2-[(5-chloropyrimidin-2-yl)methyl]-7-fluoro-5-[2-hydroxy-1-(piperazin-1-yl)butan-2-yl]-3-oxo-2,3-dihydro-1H-isoindol-1-yl]oxy}methyl)cyclopropane-1-carbonitrile [Example 537]	0.76 µM
1-({[(1R)-1-(4-chlorophenyl)-7-fluoro-2-[(5-fluoropyridin-2-yl)methyl]-5-[1-hydroxy-1-(1-methyl-1H-pyrazol-4-yl)ethyl]-3-oxo-2,3-dihydro-1H-isoindol-1-yl]oxy}methyl)cyclopropane-1-carboxamide [Example 209]	0.45 µM
2-{[(1R)-1-(4-chlorophenyl)-7-fluoro-5-[1-hydroxy-1-(1-methyl-1H-imidazol-4-yl)propyl]-3-oxo-1-{[trans-3-hydroxycyclobutyl]methoxy}-2,3-dihydro-1H-isoindol-2-yl]methyl}pyrimidine-5-carbonitrile [Example 484]	4.9 µM

Same assay, conditions: read-out: SJSA1 IC50 (μM) (Protocol B); SJSA-1, CellTiter-Glo, 72 hrs

Substance	IC50
1-({[(1R)-2-[(4-chloro-2-methanesulfonylphenyl)methyl]-1-(4-chlorophenyl)-7-fluoro-5-[1-hydroxy-1-(1-methyl-1H-pyrazol-4-yl)ethyl]-3-oxo-2,3-dihydro-1H-isoindol-1-yl]oxy}methyl)cyclopropane-1-carboxamide [Example 74]	1 µM
4-{[(1R)-1-(4-chlorophenyl)-7-fluoro-5-[1-hydroxy-1-(1-methyl-1H-imidazol-4-yl)propyl]-3-oxo-1-[(3S)-oxolan-3-yloxy]-2,3-dihydro-1H-isoindol-2-yl]methyl}-3-(hydroxymethyl)benzonitrile [Example 92]	0.084 µM

These substances were tested against MDM2-p53 interaction (in vitro translated MDM2) (Homo sapiens (Human), UniProt Q00987) (assay: MDM2-p53 interaction 96-well plate binding assay (ELISA)). Conditions: not given.
Chain of MDM2-p53 interaction (in vitro translated MDM2) (Q00987 whole entry): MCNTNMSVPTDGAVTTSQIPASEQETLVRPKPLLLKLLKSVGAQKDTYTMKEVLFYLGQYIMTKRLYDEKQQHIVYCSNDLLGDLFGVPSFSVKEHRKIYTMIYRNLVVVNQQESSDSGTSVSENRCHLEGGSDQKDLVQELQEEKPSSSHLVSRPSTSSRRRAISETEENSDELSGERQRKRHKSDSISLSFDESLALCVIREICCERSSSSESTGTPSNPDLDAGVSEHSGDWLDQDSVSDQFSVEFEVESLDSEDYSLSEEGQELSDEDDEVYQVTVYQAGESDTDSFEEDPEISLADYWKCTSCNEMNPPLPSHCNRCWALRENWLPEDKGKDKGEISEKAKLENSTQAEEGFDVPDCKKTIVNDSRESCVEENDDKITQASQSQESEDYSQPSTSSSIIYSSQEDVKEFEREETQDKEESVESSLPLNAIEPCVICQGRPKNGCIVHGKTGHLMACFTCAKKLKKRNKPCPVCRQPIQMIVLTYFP

Substance	MDM2 % at concentration
6-{[(1R)-1-(4-chlorophenyl)-7-fluoro-5-[1-hydroxy-1-(1-methyl-1H-pyrazol-4-yl)propyl]-3-oxo-1-[(3S)-oxolan-3-yloxy]-2,3-dihydro-1H-isoindol-2-yl]methyl}pyridine-3-carbonitrile [Example 358]	74%@0.0010

Same assay, conditions: at 0.0010 μM

Substance	MDM2 % inhibition at 0.0010
1-({[(1R)-1-(4-chlorophenyl)-2-[(5-chloropyrimidin-2-yl)methyl]-7-fluoro-5-[1-(4-fluoropiperidin-4-yl)-1-hydroxypropyl]-3-oxo-2,3-dihydro-1H-isoindol-1-yl]oxy}methyl)cyclopropane-1-carbonitrile [Example 545]	94%@0.0010
1-({[(1R)-1-(4-chlorophenyl)-2-[(5-chloropyrimidin-2-yl)methyl]-7-fluoro-5-[2-hydroxy-1-(piperazin-1-yl)butan-2-yl]-3-oxo-2,3-dihydro-1H-isoindol-1-yl]oxy}methyl)cyclopropane-1-carbonitrile [Example 536]	64%@0.0010
2-[(5-chloro-3-hydroxypyridin-2-yl)methyl]-3-(4-chlorophenyl)-4-fluoro-6-[(1S)-1-hydroxy-1-(1-methylpiperidin-4-yl)propyl]-3-[(3S)-oxolan-3-yloxy]-2,3-dihydro-1H-isoindol-1-one [Example 568]	76%@0.0010
2-{[(1R)-1-(4-chlorophenyl)-7-fluoro-5-[(1R)-1-(4-fluorooxan-4-yl)-1-hydroxypropyl]-3-oxo-1-[cis-3-hydroxycyclobutoxy]-2,3-dihydro-1H-isoindol-2-yl]methyl}pyrimidine-5-carbonitrile [Example 505]	60%@0.0010
2-{[(1R)-1-(4-chlorophenyl)-7-fluoro-5-{1-hydroxy-1-[trans-4-hydroxycyclohexyl]propyl}-3-oxo-1-[(3S)-oxolan-3-yloxy]-2,3-dihydro-1H-isoindol-2-yl]methyl}pyrimidine-5-carbonitrile [Example 503]	87%@0.0010
6-{[(1R)-1-(4-chlorophenyl)-7-fluoro-5-[1-(4-fluoropiperidin-4-yl)-1-hydroxypropyl]-3-oxo-1-[(3S)-oxolan-3-yloxy]-2,3-dihydro-1H-isoindol-2-yl]methyl}pyridine-3-carbonitrile [Example 546]	86%@0.0010
(3R)-3-(4-chlorophenyl)-2-[(5-chloropyridin-2-yl)methyl]-4-fluoro-6-[1-(4-fluoropiperidin-4-yl)-1-hydroxypropyl]-3-[(2R)-2-hydroxypropoxy]-2,3-dihydro-1H-isoindol-1-one [Example 549]	85%@0.0010
(3R)-3-(4-chlorophenyl)-2-[(5-chloropyrimidin-2-yl)methyl]-4-fluoro-6-[(1S)-1-hydroxy-1-(1-methylpiperidin-4-yl)propyl]-3-[cis-3-hydroxycyclobutoxy]-2,3-dihydro-1H-isoindol-1-one [Example 560]	30%@0.0010
(3R)-3-(4-chlorophenyl)-2-[(5-chloropyrimidin-2-yl)methyl]-4-fluoro-6-{1-hydroxy-1-[trans-4-hydroxycyclohexyl]propyl}-3-methoxy-2,3-dihydro-1H-isoindol-1-one [Example 511]	72%@0.0010

Same assay, conditions: at 0.010 μM

Substance	MDM2 % at concentration
(3R)-3-(4-chlorophenyl)-4-fluoro-6-[1-hydroxy-1-(1-methyl-1H-pyrazol-4-yl)ethyl]-3-[(1-hydroxycyclopropyl)methoxy]-2-[(5-methoxypyridin-2-yl)methyl]-2,3-dihydro-1H-isoindol-1-one [Example 228]	61%@0.010

Same assay, conditions: at 0.030 μM

Substance	MDM2 % at concentration
(3R)-3-(4-Chlorophenyl)-2-[(1R)-1-(5-chloropyridin-2-yl)-2,3-dihydroxypropyl]-4-fluoro-3-[(1-hydroxycyclopropyl)methoxy]-6-(2-hydroxypropan-2-yl)-2,3-dihydro-1H-isoindol-1-one [Example 331]	49%@0.030

Same assay, conditions: at 0.10 μM

Substance	MDM2 % inhibition at 0.10
2-{[(1R)-1-(4-chlorophenyl)-1-[(1-cyanocyclopropyl)methoxy]-7-fluoro-5-[1-hydroxy-1-(1-methyl-1H-imidazol-4-yl)propyl]-3-oxo-2,3-dihydro-1H-isoindol-2-yl]methyl}pyrimidine-5-carbonitrile [Example 463]	73%@0.10
6-{[(1R)-1-(4-chlorophenyl)-7-fluoro-5-[1-hydroxy-1-(1-methyl-1H-imidazol-4-yl)butyl]-3-oxo-1-[(3S)-oxolan-3-yloxy]-2,3-dihydro-1H-isoindol-2-yl]methyl}pyridine-3-carbonitrile [Example 473]	44%@0.10
(3R)-2-[(5-chloro-3-hydroxypyridin-2-yl)methyl]-3-(4-chlorophenyl)-4-fluoro-6-[1-hydroxy-1-(1-methyl-1H-imidazol-4-yl)propyl]-3-[cis-3-hydroxycyclobutoxy]-2,3-dihydro-1H-isoindol-1-one [Example 488]	56%@0.10
(3R)-3-(4-chlorophenyl)-2-[(5-chloropyrimidin-2-yl)methyl]-4-fluoro-6-[(1R)-1-hydroxy-1-(1-methylpiperidin-4-yl)propyl]-3-[(3S)-oxolan-3-yloxy]-2,3-dihydro-1H-isoindol-1-one [Example 567]	57%@0.10
